From patent US20120264755A1, “PYRIDINYL DERIVATIVES AS INHIBITORS OF ENZYME NICOTINAMIDE PHOSPHORIBOSYLTRANSFERASE” (TopoTarget, priority 2009, published 2012)

Test system: A2780 cells
Experiment: In vitro cell proliferation assay (WST-1 assay)
Assay type: cell-based
Details: Homo sapiens, total incubation time 72 h, WST-1 readout
Procedure: A2780 cells were seeded in 96-well plates at 3×10^3 cells/well in 100 μL of culture medium, 8 wells were left empty for media only controls.
After 24 h the compound titrations were performed, in a separate dilution plate, by serially diluting the compounds of general formula (I) in culture medium. A 100 μL of each dilution was added to the plated cells, this was done in triplicate, and controls (e.g. DMSO and blanks) were included. The plates were incubated for 24 h at 37° C. in a CO2 incubator. The compound titrations were repeated in a separate dilution plate after 24 h. The media plus compound from the assay plates were then aspirated. A 100 μL of media was then added to all wells, followed by 100 μL of each compound dilution. The plates were incubated for a further 48 h at 37° C. in a CO2 incubator (total incubation time 72 h). The number of viable cells was then assessed using Cell Proliferation Reagent WST-1. 10 μL of WST-1 reagent added to each well and incubated for one to four hours at 37° C. in CO2 incubator. The absorbance was measured (450 nm/690 nm).
The activity of compounds of general formula (I) in reducing the number of viable cells was calculated as:
% activity=[(S^c−B)/(S^o−B)]×100
S^c denotes signal measured in the presence of test compound, S^o denotes signal detected in the absence of compound, and B denotes background signal, measured in blank wells containing medium only. Analyse data using GraphPad Prism.

Compound	IC50 [nM]
N#C/N=C(\NCCCCCCCCN(CCCN1CCOCC1)C(=O)c1ccccc1)Nc1cccnc1 [Compound 1076, N-(8-(2-cyano-3-(pyridin-3-yl)guanidino)octyl)-N-(3-morpholinopropyl)benzamide]	0.075
N#C/N=C(\NCCCCCCCCN(CCCN1CCOCC1)C(=O)NC1CCCCC1)Nc1ccncc1 [Compound 1093, 1-(8-(2-cyano-3-(pyridin-4-yl)guanidino)octyl)-3-cyclohexyl-1-(morpholinopropyl)urea]	0.063
O=C(NCCCCCCCN(OC1CCCCO1)S(=O)(=O)Cc1ccccc1)NCc1cccnc1 (stereo not shown) [Compound 1057, 1-Phenyl-N-(7-(3-(pyridin-3-ylmethyl)ureido)heptyl)-N-(tetrahydro-2H-pyran-2-yloxy)methanesulfonamide]	0.37
N#C/N=C(\NCCCCCCCN(CCCN1CCOCC1)C1CCCCC1)Nc1ccncc1 [Compound 1002, 2-cyano-1-(7-(cyclohexyl(3-morpholinopropyl)amino)heptyl)-3-(pyridin-4-yl)guanidine]	2.03
CP(C)(=O)N(CCCCCCCCN/C(=N\C#N)Nc1ccncc1)CCCN1CCOCC1 [Compound 1088, 2-Cyano-1-(8-((dimethylphosphoryl)(3-morpholinopropyl)amino)octyl)-3-(pyridin-4-yl)guanidine]	5.65
N#C/N=C(\NCCCCCCCCN(CCCN1CCOCC1)S(=O)(=O)c1ccccc1)Nc1ccncc1 [Compound 1035, N-(8-(2-cyano-3-(pyridin-4-yl)guanidino)octyl)-N-(3-morpholinopropyl)benzenesulfonamide]	0.042
CS(=O)(=O)N(CCCCCCCCNC(=O)NCc1cccnc1)OCc1ccccc1 [Compound 1022]	0.8
O=c1c(NCCCCCCCN(OC2CCCCO2)S(=O)(=O)Cc2ccccc2)c(Nc2ccncc2)c1=O (stereo not shown) [Compound 1056, N-(7-(3,4-Dioxo-2-(pyridin-4-ylamino)cyclobut-1-enylamino)heptyl)-1-Phenyl-N-(tetrahydro-2H-pyran-2-yloxy)methanesulfonamide]	0.35
N#C/N=C(\NCCCCCCCN(OC1CCCCO1)S(=O)(=O)Cc1ccccc1)Nc1ccncc1 (stereo not shown) [Compound 1055]	0.025
O=C(NCCCCCCCCN(CCCN1CCOCC1)S(=O)(=O)C1CCCCC1)NCc1cccnc1 [Compound 1013, N-(3-morpholinopropyl)-N-(8-(3-(pyridin-3-ylmethyl)ureido)octyl)cyclohexanesulfonamide]	0.025
CS(=O)(=O)N(CCCCCCCCNC(=O)/C=C/c1cccnc1)CCCN1CCOCC1 [Compound 1033, N-(8-(N-(3-morpholinopropyl)methylsulfonamido)octyl)-3-(pyridin-3-yl)acrylamide]	1.17
CS(=O)(=O)N(CCCCCN/C(=N\C#N)Nc1ccncc1)OCC1CCCCC1 [Compound 1143]	0.081
CC(C)S(=O)(=O)N(CCCCCCCCN/C(=N\C#N)Nc1ccncc1)OCc1ccccc1 [Compound 1024]	0.047
O=c1c(NCCCCCCCN(CCF)S(=O)(=O)C2CCCCC2)c(Nc2ccncc2)c1=O [Compound 1099, N-(7-(3,4-dioxo-2-(pyridin-4-ylamino)cyclobut-1-enylamino)heptyl)-N-(2-fluoroethyl)cyclohexanesulfonamide]	0.43
N#C/N=C(\NCCCCCCCCN(CCCN1CCOCC1)C1CCCCC1)Nc1ccncc1 [Compound 1001]	0.49
CCNC(=O)N(CCCCCCN/C(=N\C#N)Nc1ccncc1)OCC1CCCCC1 [Compound 1114, 1-(6-(2-cyano-3-(pyridin-4-yl)guanidino)hexyl)-1-(cyclohexylmethoxy)-3-ethylurea]	0.057

Compound	IC50 [nM]
CCS(=O)(=O)N(CCCCCCCNc1c(Nc2ccncc2)c(=O)c1=O)OCC1CCCCC1 [Compound 1061, N-(cyclohexylmethoxy)-N-(7-(3,4-dioxo-2-(pyridin-4-ylamino)cyclobut-1-enylamino)heptyl)ethanesulfonamide]	0.35
O=C(c1ccccc1)N(CCCCCCCCNc1c(Nc2ccncc2)c(=O)c1=O)CCCN1CCOCC1 [Compound 1072, N-(8-(3,4-dioxo-2-(pyridin-4-ylamino)cyclobut-1-enylamino)octyl)-N-(3-morpholinopropyl)benzamide]	0.17
N#C/N=C(\NCCCCCCCCN(CCF)S(=O)(=O)C1CCCCC1)Nc1ccncc1 [Compound 1103]	0.005
N#C/N=C(\NCCCCCCCN(CCCN1CCOCC1)S(=O)(=O)C1CCCC1)Nc1ccncc1 [Compound 1011, N-(7-(2-cyano-3-(pyridin-4-yl)guanidino)heptyl)-N-(3-morpholinopropyl)cyclopentanesulfonamide]	0.003
CCS(=O)(=O)N(CCCCCCCNC(=O)Nc1ccncc1)OCC1CCCCC1 [Compound 1064, N-(cyclohexylmethoxy)-N-(7-(3-(pyridin-4-yl)ureido)heptyl)ethanesulfonamide]	0.44
O=C(/C=C/c1cccnc1)NCCCCCCCN(OC1CCCCO1)S(=O)(=O)Cc1ccccc1 (stereo not shown) [Compound 1058, (E)-N-(7-(1-phenyl-N-(tetrahydro-2H-pyran-2-yloxy)methylsulfonamido)heptyl)-3-(pyridin-3-yl)acrylamide]	0.39
O=C(NCCCCCCCCN(CCCN1CCOCC1)S(=O)(=O)c1ccccc1)NCc1cccnc1 [Compound 1037]	0.002
O=C(c1ccccc1)N(CCCCCCCCNC(=S)Nc1ccncc1)CCCN1CCOCC1 [Compound 1075, N-(3-morpholinopropyl)-N-(8-(3-(pyridin-4-yl)thioureido)octyl)benzamide]	0.39
CNC(=S)N(CCCCCCN/C(=N\C#N)Nc1ccncc1)OCC1CCCCC1 [Compound 1116, 1-(6-(2-cyano-3-(pyridin-4-yl)guanidino)hexyl)-1-(cyclohexylmethoxy)-3-methylthiourea]	0.056
O=C(NCCCCCCCCN(CCCN1CCOCC1)S(=O)(=O)C1CCCC1)NCc1cccnc1 [Compound 1012, N-(3-morpholinopropyl)-N-(8-(3-(pyridin-3-ylmethyl)ureido)octyl)cyclopentanesulfonamide]	0.09
O=C(NCCCCCCCN(CCCN1CCOCC1)S(=O)(=O)C1CCCC1)NCc1cccnc1 [Compound 1015, N-(3-morpholinopropyl)-N-(7-(3-(pyridin-3-ylmethyl)ureido)heptyl) cyclopentanesulfonamide]	0.1
O=c1c(NCCCCCCCN(CCCN2CCOCC2)S(=O)(=O)C2CCCC2)c(Nc2ccncc2)c1=O [Compound 1019, N-(7-(3,4-dioxo-2-(pyridin-4-ylamino)cyclobut-1-enylamino)heptyl)-N-(3-morpholinopropyl)cyclopentanesulfonamide]	0.44
CS(=O)(=O)N(CCCCCCN/C(=N\C#N)Nc1ccncc1)OCC1CCCCC1 [Compound 1112, N-(6-(2-cyano-3-(pyridin-4-yl)guanidino)hexyl)-N-(cyclohexylmethoxy)methanesulfonamide]	0.086
O=C(NCCCCCCCCN(CCCN1CCOCC1)C(=O)c1ccccc1)NCc1cccnc1 [Compound 1073, N-(3-morpholinopropyl)-N-(8-(3-(Pyridin-3-ylmethyl)ureido)octyl)benzamide]	0.31
CC(C)NC(=O)N(CCCCCCN/C(=N\C#N)Nc1ccncc1)OCC1CCCCC1 [Compound 1115, 1-(6-(2-cyano-3-(pyridin-4-yl)guanidino)hexyl)-1-(cyclohexylmethoxy)-3-isopropylurea]	0.033
